Measured values from US10138207B2, “Benzomorphan analogs and the use thereof” (priority 2012, dated 2018).
Like-named read-outs stand apart in the source and are kept apart here.

How the values were obtained:
[1] = biological target: T1, κ opioid receptor (Homo sapiens, UniProt P41145); assay: κ-opioid receptor [35S]GTPγS functional assay, HEK-293 or CHO cells; type: biochemical; set-up: expressed in transfected cells; host or cells: U-2 OS (in-house membranes); settings: for Emax: relative to U69,593
T1 sequence (P41145 whole entry): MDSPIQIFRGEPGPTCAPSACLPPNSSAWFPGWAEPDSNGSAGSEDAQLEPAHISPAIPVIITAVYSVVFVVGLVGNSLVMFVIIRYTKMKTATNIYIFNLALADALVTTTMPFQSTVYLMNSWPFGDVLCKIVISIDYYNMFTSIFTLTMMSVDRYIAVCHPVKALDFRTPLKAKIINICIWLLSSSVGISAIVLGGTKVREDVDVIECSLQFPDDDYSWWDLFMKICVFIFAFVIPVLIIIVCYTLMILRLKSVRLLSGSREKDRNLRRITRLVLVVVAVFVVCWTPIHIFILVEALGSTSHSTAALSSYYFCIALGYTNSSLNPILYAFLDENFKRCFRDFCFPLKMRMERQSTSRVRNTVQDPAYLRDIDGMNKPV
Method: Membranes from recombinant HEK-293 cells, CHO or U-2 OS cells expressing the recombinant human κ opioid receptor (κ) were prepared by lysing cells in ice cold hypotonic buffer (2.5 mM MgCl2, 50 mM HEPES, pH 7.4) (10 mL/10 cm dish) followed by homogenization with a tissue grinder/Teflon pestle. Membranes from a cell line naturally expressing kappa opioid receptors can also be used. Membranes were collected by centrifugation at 30,000×g for 15 min at 4° C. and pellets were resuspended in hypotonic buffer to a final concentration of 1-3 mg/mL. Protein concentrations were determined using the BioRad protein assay reagent with bovine serum albumen as standard. Aliquots of κ receptor membranes were stored at −80° C.
Plates were incubated for 30 min at a temperature of about 25° C. with shaking.

[2] = biological target: T1, κ opioid receptor; assay: biochemical; type: binding; set-up: expressed in transfected cells; host or cells: HEK 293 (in-house membrane prep); settings: HEK-293 or CHO cells
[3] = biological target: T2, μ-opioid receptor (Homo sapiens, UniProt P35372); assay: μ-opioid receptor [35S]GTPγS functional assay, HEK-293 or CHO cells; settings: for Emax: read-out: GTPγS μ Emax
T2 sequence (P35372 whole entry, species assumed): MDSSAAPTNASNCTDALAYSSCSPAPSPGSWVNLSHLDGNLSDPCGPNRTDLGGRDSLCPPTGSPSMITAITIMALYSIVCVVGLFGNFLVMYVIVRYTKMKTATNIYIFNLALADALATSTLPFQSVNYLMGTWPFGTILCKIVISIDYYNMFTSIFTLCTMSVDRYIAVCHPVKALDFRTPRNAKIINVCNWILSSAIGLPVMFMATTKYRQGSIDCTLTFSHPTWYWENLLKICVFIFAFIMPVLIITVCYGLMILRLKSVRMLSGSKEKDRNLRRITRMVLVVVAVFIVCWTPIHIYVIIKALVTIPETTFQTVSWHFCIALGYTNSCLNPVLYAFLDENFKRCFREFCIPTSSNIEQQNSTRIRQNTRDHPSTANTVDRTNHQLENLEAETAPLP

[4] = biological target: T2, μ-opioid receptor; assay: μ-opioid receptor [35S]GTPγS functional assay, U-2 OS cells; type: biochemical; set-up: expressed in transfected cells; host or cells: U-2 OS; settings: for Emax: read-out: GTPγS μ Emax
[5] = HEK-293 or CHO cells, bound in μM, read-out: GTPγS κ EC50
[6] = U-2 OS cells, read-out: GTPγS μ EC50
[7] = U-2 OS cells, relative to DAMGO
[8] = HEK-293 or CHO cells, read-out: GTPγS κ EC50

CC(C)CC(NC(=O)N(C)C1[C@H]2Cc3ccc(O)cc3[C@]1(C)CCN2C)C(=O)O (stereo in doubt) [Compound 76, 2-(3-((2R,6S,11S)-8-hydroxy-3,6-dimethyl-1,2,3,4,5,6-hexahydro-2,6-methanobenzo[d]azocin-11-yl)-3-methylureido)-4-methylpentanoic acid]
EC50 [1, 5]: > 20 µM
Emax ([1]; HEK-293 or CHO cells): -0.33 ± 0.67%
Ki [2]: 107 ± 1.33 nM
EC50 [3]: 811 ± 53 nM
Emax [3]: 79.3 ± 3.48%

CN1CC[C@]2(C)c3cc(O)ccc3CC1C2N(C)c1ccc(CCS(N)(=O)=O)cc1 (stereo in doubt) [Compound 51, 2-(4-(((2R,6R,11S)-8-hydroxy-3,6-dimethyl-1,2,3,4,5,6-hexahydro-2,6-methanobenzo[d]azocin-11-yl)(methyl)amino)phenyl)ethanesulfonamide]
EC50 [1, 5]: > 20 µM
EC50 [4, 6]: 0.21 ± 0.021 nM
Emax [4, 7]: 113 ± 2.65%
Ki [2]: 7.83 ± 0.95 nM
EC50 [3]: 1.44 ± 0.44 nM
Emax [3]: 100 ± 7.22%

CN(C(=O)Nc1ccc(C#N)cc1)[C@H]1C2Cc3ccc(O)cc3[C@@]1(C)CCN2CC1CC1 [Compound 80, 3-(4-cyanophenyl)-1-((6R,11R)-3-(cyclopropylmethyl)-8-hydroxy-6-methyl-1,2,3,4,5,6-hexahydro-2,6-methanobenzo[d]azocin-11-yl)-1-methylurea]
EC50 [1, 5]: > 20 µM
EC50 [4, 6]: 0.2 ± 0.013 nM
Emax [4, 7]: 113 ± 3.53%
Ki [2]: 1.19 ± 0.32 nM
EC50 [3]: 216 ± 38.7 nM
Emax [3]: 92.4 ± 3.23%

CN1CC[C@@]2(C)c3cc(O)ccc3C[C@@H]1[C@@H]2NCC1CCN(C(=O)OC(C)(C)C)CC1 [Compound 30, tert-butyl 4-((((2R,6S,11R)-8-hydroxy-3,6-dimethyl-1,2,3,4,5,6-hexahydro-2,6-methanobenzo[d]azocin-11-yl)amino)methyl)piperidine-1-carboxylate]
EC50 [1, 5]: > 20 µM
Emax ([1]; HEK-293 or CHO cells): 0.33 ± 0.67%
EC50 [4, 6]: 33.6 ± 8.17 nM
GTPγS μ Emax [4, 7]: 91.70 ± 4.33%
Ki [2]: 7.66 ± 1.96 nM
EC50 [3]: 270 ± 33.9 nM
Emax [3]: 49.7 ± 3.67%

CN1CC[C@]2(C)c3cc(O)ccc3CC1C2N(C)C(=O)Nc1ccc(C#N)cc1 (stereo in doubt) [Compound 78, 3-(4-cyanophenyl)-1-((2R,6R,11S)-8-hydroxy-3,6-dimethyl-1,2,3,4,5,6-hexahydro-2,6-methanobenzo[d]azocin-11-yl)-1-methylurea]
EC50 [1, 5]: > 20 µM
EC50 [4, 6]: 6.09 ± 0.45 nM
Emax [4, 7]: 109 ± 3.28%
Ki [2]: 17.9 ± 4.33 nM

CN1CC[C@]2(C)c3cc(O)ccc3CC1[C@H]2COc1ccc(C(N)=O)cc1 [Compound 44, 4-(((6S,11S)-8-hydroxy-3,6-dimethyl-1,2,3,4,5,6-hexahydro-2,6-methanobenzo[d]azocin-11-yl)methoxy)benzamide]
EC50 [1]: 0.394 ± 0.0884 µM
Emax ([1]; HEK-293 or CHO cells): 17.7 ± 1.2%
Ki [2]: 166 ± 62.3 nM
EC50 [3]: 718 ± 249 nM
Emax [3]: 65 ± 2.52%

CN(C(=O)Nc1ccc(C#N)cc1)[C@H]1C2Cc3ccc(O)cc3[C@@]1(C)CCN2CC1CCC1 [Compound 88, 3-(4-cyanophenyl)-1-((6R,11R)-3-(cyclobutylmethyl)-8-hydroxy-6-methyl-1,2,3,4,5,6-hexahydro-2,6-methanobenzo[d]azocin-11-yl)-1-methylurea]
EC50 [1, 8]: 0.0247 ± 0.00535 µM
Emax ([1]; HEK-293 or CHO cells): 18.5 ± 2.84%
EC50 [4, 6]: 1.67 ± 0.16 nM
Emax [4, 7]: 85.7 ± 2.33%
Ki [2]: 4.74 ± 1.55 nM
EC50 [3]: 7.58 ± 1.06 nM
Emax [3]: 74.7 ± 1.86%

COc1ccc2c(c1)[C@@]1(C)CCN(C)C(C2)[C@@H]1CNC(=O)Cc1ccc(Cl)c(Cl)c1 [Compound 75, 2-(3,4-dichlorophenyl)-N-(((6S,11S)-8-methoxy-3,6-dimethyl-1,2,3,4,5,6-hexahydro-2,6-methanobenzo[d]azocin-11-yl)methyl)acetamide]
EC50 [1]: > 20 µM
Emax ([1]; HEK-293 or CHO cells): 0.33 ± 0.67%
EC50 ([4]; GTPγS μ EC50, U-2 OS cells): 12.7 ± 1.52 nM
Emax [4, 7]: 104 ± 2.67%
Ki [2]: 185 ± 51.3 nM
EC50 [3]: 62.3 ± 13.7 nM
Emax [3]: 112 ± 2.4%

CN(C(=O)Nc1ccc(C#N)cc1)C1C2Cc3ccc(O)cc3[C@@]1(C)CCN2CCc1ccccc1 (stereo in doubt) [Compound 87, 3-(4-cyanophenyl)-1-((2R,6R,11S)-8-hydroxy-6-methyl-3-phenethyl-1,2,3,4,5,6-hexahydro-2,6-methanobenzo[d]azocin-11-yl)-1-methylurea]
EC50 [1, 8]: 0.024 ± 0.00194 µM
Emax ([1]; HEK-293 or CHO cells): 10.8 ± 1.49%
EC50 [4, 6]: 2.08 ± 0.12 nM
Emax [4, 7]: 99.3 ± 2.03%
Ki [2]: 1.21 ± 0.24 nM
EC50 [3]: 5.29 ± 1.1 nM
Emax [3]: 96.3 ± 2.96%

CN(C)C(=O)C(CCN1CC[C@]2(C)c3cc(O)ccc3CC1[C@H]2O)(c1ccccc1)c1ccccc1 [Compound 22, 4-((6R,11S)-8,11-dihydroxy-6-methyl-1,2,5,6-tetrahydro-2,6-methanobenzo[d]azocin-3(4H)-yl)-N,N-dimethyl-2,2-diphenylbutanamide]
EC50 [1, 5]: > 20 µM
EC50 [4, 6]: 300 ± 45.8 nM
Emax [4, 7]: 71 ± 3.46%
Ki [2]: 25.7 ± 8.74 nM

CN(C(=O)Nc1ccc(C#N)cc1)C1C2Cc3ccc(O)cc3[C@@]1(C)CCN2Cc1ccoc1 (stereo in doubt) [Compound 90, 3-(4-cyanophenyl)-1-((2R,6R,11S)-3-(furan-3-ylmethyl)-8-hydroxy-6-methyl-1,2,3,4,5,6-hexahydro-2,6-methanobenzo[d]azocin-11-yl)-1-methylurea]
EC50 [1, 5]: > 20 µM
Emax ([1]; HEK-293 or CHO cells): 1%
EC50 [4, 6]: 7.02 ± 1.89 nM
Emax [4, 7]: 14 ± 1%
Ki [2]: 1.74 ± 0.45 nM
EC50 [3]: 5.92 ± 1.82 nM
Emax [3]: 32.7 ± 5.78%

CN[C@@H]1[C@H]2Cc3ccc(OC)cc3[C@@]1(C)CCN2CC1CC1 [Compound 56, (2R,6R,11S)-3-(cyclopropylmethyl)-8-methoxy-N,6-dimethyl-1,2,3,4,5,6-hexahydro-2,6-methanobenzo[d]azocin-11-amine]
EC50 [1]: 2.58 ± 0.721 µM
Emax ([1]; HEK-293 or CHO cells): 25.7 ± 1.67%
Ki [2]: 170 ± 51.9 nM
EC50 [3]: 3810 ± 726 nM
Emax [3]: 36.7 ± 7.22%

CN(C(=O)Nc1ccc(C#N)cc1)[C@@H]1C2Cc3ccc(O)cc3[C@@]1(C)CCN2CC1CC1 [Compound 81, 3-(4-cyanophenyl)-1-((6R,11S)-3-(cyclopropylmethyl)-8-hydroxy-6-methyl-1,2,3,4,5,6-hexahydro-2,6-methanobenzo[d]azocin-11-yl)-1-methylurea]
EC50 [1, 5]: > 20 µM
Ki [2]: 36.6 ± 4.94 nM
EC50 [3]: 1230 ± 173 nM
Emax [3]: 31.2 ± 2.87%

CCN(C(=O)/C=C/c1ccoc1)C1C2Cc3ccc(OC)cc3[C@@]1(C)CCN2C (stereo in doubt) [Compound 25, (E)-N-ethyl-3-(furan-3-yl)-N-((2R,6R,11S)-8-methoxy-3,6-dimethyl-1,2,3,4,5,6-hexahydro-2,6-methanobenzo[d]azocin-11-yl)acrylamide]
EC50 [1, 5]: > 20 µM
Emax ([1]; HEK-293 or CHO cells): -1%
EC50 [4, 6]: 49.8 ± 12.1 nM
Emax [4, 7]: 102 ± 1.67%
Ki [2]: 147 ± 18.4 nM

COc1ccc2c(c1)[C@@]1(C)CCN(C)C(C2)[C@]1(O)c1cccc(C(N)=O)c1 [Compound 63, 3-((6R,11S)-11-hydroxy-8-methoxy-3,6-dimethyl-1,2,3,4,5,6-hexahydro-2,6-methanobenzo[d]azocin-11-yl)benzamide]
EC50 [1, 5]: > 20 µM
Ki [2]: 340 ± 90.9 nM
EC50 [3]: > 20000 nM

CN1CC[C@]2(C)c3cc(O)ccc3CC1C2N(C)CCc1ccccc1 (stereo in doubt) [Compound 29, (2R,6R,11S)-3,6-dimethyl-11-(methyl(phenethyl)amino)-1,2,3,4,5,6-hexahydro-2,6-methanobenzo[d]azocin-8-ol]
EC50 [1, 8]: 0.233 ± 0.0749 µM
Emax ([1]; HEK-293 or CHO cells): 28.2 ± 4.66%
EC50 [4, 6]: 0.044 nM
Emax [4, 7]: 100 ± 1.45%
Ki [2]: 30.1 ± 11.8 nM

CN1CC[C@]2(C)c3cc(O)ccc3CC1C2N(C)C(=O)Cc1ccc(S(C)(=O)=O)cc1 (stereo in doubt) [Compound 27, N-((2R,6R,11S)-8-hydroxy-3,6-dimethyl-1,2,3,4,5,6-hexahydro-2,6-methanobenzo[d]azocin-11-yl)-N-methyl-2-(4-(methylsulfonyl)phenyl)acetamide]
EC50 [1, 5]: > 20 µM
EC50 [4, 6]: 1.51 ± 0.24 nM
Emax [4, 7]: 103 ± 2.33%
Ki [2]: 35.2 ± 9.38 nM

COc1ccc2c(c1)[C@@]1(C)CCN(C)C(C2)[C@@H]1c1cccc(C(N)=O)c1 [Compound 54, 3-((6S,11R)-8-methoxy-3,6-dimethyl-1,2,3,4,5,6-hexahydro-2,6-methanobenzo[d]azocin-11-yl)benzamide]
EC50 [1, 5]: > 20 µM
Ki [2]: 259 ± 33.6 nM
EC50 [3]: > 20000 nM

CN1CC[C@]2(C)c3cc(O)ccc3CC1[C@@H]2COc1ncc([C@H](O)CO)cc1Cl [Compound 43, (1S)-1-(5-chloro-6-(((6S,11R)-8-hydroxy-3,6-dimethyl-1,2,3,4,5,6-hexahydro-2,6-methanobenzo[d]azocin-11-yl)methoxy)pyridin-3-yl)ethane-1,2-diol]
EC50 [1]: > 20 µM
Ki [2]: 516 ± 126 nM
EC50 [3]: 3390 ± 63.4 nM
Emax [3]: 24.7 ± 3.28%
